Test results from ChEMBL document CHEMBL1140820, “beta-N-Biaryl ether sulfonamide hydroxamates as potent gelatinase inhibitors: part 2. Optimization of alpha-amino substituents” (Bioorg Med Chem Lett, 2008).

Tests used:
[1] = AUC in rat at 0.5 mg/kg, iv; type: ADME, organism-based; design: dose 0.5 mg/kg, route intravenous; details: plasma
[2] = Selectivity for MMP9 over MMP2
[3] = Clearance in rat at 0.5 mg/kg, iv; type: ADME, organism-based; design: dose 0.5 mg/kg, route intravenous; details: in vivo
[4] = Cmax in rat at 0.5 mg/kg, iv; type: ADME, organism-based; design: dose 0.5 mg/kg, route intravenous; details: in vivo
[5] = Volume of distribution at steady state in rat at 0.5 mg/kg, iv; type: ADME, organism-based; design: dose 0.5 mg/kg, route intravenous; details: in vivo, read-out: Vdss
[6] = Aqueous solubility at pH 2.0; type: physicochemical
[7] = Metabolic stability in rat liver microsomes assessed as half life […]; type: ADME, Microsome
[8] = Metabolic stability in human liver microsomes assessed as half life […]; type: ADME, Microsome
[9] = tested on: Rattus norvegicus; test: Reduction of ischemia induced brain edema in Sprague-Dawley rat tMCAo model at 2 mg/kg, iv after 3 hrs; type: functional; design: scale not given: the % may be the effect or the level left
[10] = Apparent elimination half life in rat at 0.5 mg/kg, iv; type: ADME, organism-based; design: dose 0.5 mg/kg, route intravenous; details: in vivo, read-out: beta t1/2 (converted)
[11] = Aqueous solubility at pH 7.0; type: physicochemical
[12] = Protein binding in rat at 0.5 mg/kg, iv; type: ADME, organism-based; design: dose 0.5 mg/kg, route intravenous; details: plasma, read-out: PPB (converted)
[13] = molecular target: Matrix metalloproteinase-9 (Homo sapiens, UniProt P14780); test: Inhibition of MMP9
[14] = molecular target: 72 kDa type IV collagenase (Homo sapiens, UniProt P08253); test: Inhibition of MMP2
[15] = molecular target: T1, Interstitial collagenase (Homo sapiens, UniProt P03956); test: Inhibition of MMP1
T1 sequence (P03956 whole entry): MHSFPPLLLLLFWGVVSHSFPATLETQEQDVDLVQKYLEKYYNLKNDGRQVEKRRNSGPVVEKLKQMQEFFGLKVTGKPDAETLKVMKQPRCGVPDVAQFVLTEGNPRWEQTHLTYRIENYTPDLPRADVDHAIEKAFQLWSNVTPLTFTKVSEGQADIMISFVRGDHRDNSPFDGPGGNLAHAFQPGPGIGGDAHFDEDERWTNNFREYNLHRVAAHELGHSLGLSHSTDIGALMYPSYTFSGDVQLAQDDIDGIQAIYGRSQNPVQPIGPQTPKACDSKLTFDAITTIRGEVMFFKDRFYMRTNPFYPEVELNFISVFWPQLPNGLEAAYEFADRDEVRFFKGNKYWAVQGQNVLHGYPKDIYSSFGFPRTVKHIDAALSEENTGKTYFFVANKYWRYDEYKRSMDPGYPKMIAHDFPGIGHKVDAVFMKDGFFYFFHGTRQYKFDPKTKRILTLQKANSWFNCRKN

[16] = molecular target: Collagenase 3 (Homo sapiens, UniProt P45452); test: Inhibition of MMP13

Chain of 72 kDa type IV collagenase (P08253 whole entry): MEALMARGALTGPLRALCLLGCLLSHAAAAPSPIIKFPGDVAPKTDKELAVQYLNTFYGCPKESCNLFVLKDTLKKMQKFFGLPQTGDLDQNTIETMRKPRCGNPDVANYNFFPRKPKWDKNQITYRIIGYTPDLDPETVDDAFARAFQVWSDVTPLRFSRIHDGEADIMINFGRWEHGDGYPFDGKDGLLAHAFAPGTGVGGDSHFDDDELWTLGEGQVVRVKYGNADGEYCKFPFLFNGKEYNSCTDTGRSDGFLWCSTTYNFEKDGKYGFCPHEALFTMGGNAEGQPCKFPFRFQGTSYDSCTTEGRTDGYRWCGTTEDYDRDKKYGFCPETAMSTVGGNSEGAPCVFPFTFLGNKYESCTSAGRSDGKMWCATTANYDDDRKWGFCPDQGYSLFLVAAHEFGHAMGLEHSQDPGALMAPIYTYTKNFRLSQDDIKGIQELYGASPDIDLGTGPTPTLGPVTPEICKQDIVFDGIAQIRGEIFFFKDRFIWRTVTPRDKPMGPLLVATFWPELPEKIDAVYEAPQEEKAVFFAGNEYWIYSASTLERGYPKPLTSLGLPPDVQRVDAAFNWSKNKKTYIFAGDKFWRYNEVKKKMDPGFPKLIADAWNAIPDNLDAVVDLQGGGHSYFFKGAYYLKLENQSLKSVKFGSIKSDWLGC
Chain of Matrix metalloproteinase-9 (P14780 whole entry): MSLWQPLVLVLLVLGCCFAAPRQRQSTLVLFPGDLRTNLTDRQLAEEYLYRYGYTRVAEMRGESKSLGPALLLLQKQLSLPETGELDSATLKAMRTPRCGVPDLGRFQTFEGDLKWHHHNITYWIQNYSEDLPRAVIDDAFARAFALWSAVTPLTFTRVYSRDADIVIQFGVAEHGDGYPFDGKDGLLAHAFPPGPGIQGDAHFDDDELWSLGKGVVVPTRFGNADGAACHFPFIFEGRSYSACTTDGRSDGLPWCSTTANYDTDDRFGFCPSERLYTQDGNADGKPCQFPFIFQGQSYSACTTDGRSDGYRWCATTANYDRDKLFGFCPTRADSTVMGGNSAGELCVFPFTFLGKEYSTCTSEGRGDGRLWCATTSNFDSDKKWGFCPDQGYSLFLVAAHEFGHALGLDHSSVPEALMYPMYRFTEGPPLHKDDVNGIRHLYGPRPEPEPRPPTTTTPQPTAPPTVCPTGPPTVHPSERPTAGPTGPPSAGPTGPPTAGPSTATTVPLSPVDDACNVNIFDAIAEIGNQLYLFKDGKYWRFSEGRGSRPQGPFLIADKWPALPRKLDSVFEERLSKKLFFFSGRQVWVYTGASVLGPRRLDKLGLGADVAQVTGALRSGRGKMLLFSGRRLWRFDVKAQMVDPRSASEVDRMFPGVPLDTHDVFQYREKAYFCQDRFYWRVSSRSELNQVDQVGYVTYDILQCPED

Row | SMILES | Ratio IC50 [2] | IC50 [13] [nM] | IC50 [14] [nM] | other results
1 | CS(=O)(=O)N(C[C@@H](C(=O)NO)N1CCOCC1)c1ccc(Oc2ccc(C(F)(F)F)cc2)cc1 | 3.2 |  |  | AUC [1]: 130 ng·h/mL; clearance [3]: 65.4 mL/min/kg; Cmax [4]: 860 nM; Vd [5]: 0.99 L/kg; solubility [6]: > 70 µg/mL; half-life [7]: > 120 min; half-life [8]: > 120 min; Activity [9]: 3.3%; half-life [10]: 12 min; solubility [11]: > 70 µg/mL; fraction unbound [12]: 0.26
2 | CS(=O)(=O)N(C[C@@H](C(=O)NO)N1CCOCC1)c1ccc(Oc2ccc(Cl)cc2)cc1 | 2.8 |  |  | 
3 | Cc1ccc(Oc2ccc(N(C[C@@H](NC(C)C)C(=O)NO)S(C)(=O)=O)cc2)cc1 | 5.7 | 31 | 178 | 
4 | C[C@@H]1CN([C@@H](CN(c2ccc(Oc3ccc(C(F)(F)F)cc3)cc2)S(C)(=O)=O)C(=O)NO)C[C@H](C)O1 | 5.1 | 1.1 | 5.6 | 
5 | CNC(=O)C1CCN([C@@H](CN(c2ccc(Oc3ccc(C(F)(F)F)cc3)cc2)S(C)(=O)=O)C(=O)NO)CC1 | 2.2 | 2.5 | 5.5 | 
6 | Cc1ccc(Oc2ccc(N(C[C@H](Nc3cccc(Cl)c3)C(=O)NO)S(C)(=O)=O)cc2)cc1 | 16.6 | 20 |  | 
7 | Cc1ccc(Oc2ccc(N(C[C@@H](C(=O)NO)N3C[C@@H](C)O[C@@H](C)C3)S(C)(=O)=O)cc2)cc1 | 4.1 |  |  | 
8 | Cc1ccc(Oc2ccc(N(C[C@H](NCc3cccnc3)C(=O)NO)S(C)(=O)=O)cc2)cc1 | 6.1 | 2.8 | 17 | 
9 | CS(=O)(=O)N(C[C@@H](C(=O)NO)N1CCC(c2ccccc2)CC1)c1ccc(Oc2ccc(C(F)(F)F)cc2)cc1 | 2.7 |  |  | 
10 | Cc1ccc(Oc2ccc(N(C[C@H](NCC(C)C)C(=O)NO)S(C)(=O)=O)cc2)cc1 | 8.8 | 1.3 | 11 | IC50 [15]: > 10000 nM
11 | Cc1ccc(Oc2ccc(N(C[C@H](NC(C)C)C(=O)NO)S(C)(=O)=O)cc2)cc1 | 7.7 | 0.52 | 4 | AUC [1]: 250 ng·h/mL; clearance [3]: 35 mL/min/kg; Cmax [4]: 2680 nM; Vd [5]: 0.49 L/kg; half-life [7]: < 9 min; half-life [8]: 49 min; half-life [10]: 9.6 min; fraction unbound [12]: 0.16
12 | Cc1ccc(Oc2ccc(N(C[C@H](N)C(=O)NO)S(C)(=O)=O)cc2)cc1 | 5.5 |  |  | 
13 | Cc1ccc(Oc2ccc(N(C[C@H](NC(=O)C(C)C)C(=O)NO)S(C)(=O)=O)cc2)cc1 | 13 | 5.4 | 70 | 
14 | Cc1ccc(Oc2ccc(N(C[C@H](C(=O)NO)N3CCOCC3)S(C)(=O)=O)cc2)cc1 | 4.5 |  |  | 
15 | CS(=O)(=O)N(C[C@H](O)C(=O)NO)c1ccc(Oc2ccc(Cl)cc2)cc1 | 7.4 | 4.7 | 35 | 
16 | CC(C)N[C@@H](CN(c1ccc(Oc2ccc(C(F)(F)F)cc2)cc1)S(C)(=O)=O)C(=O)NO | 3.8 | 2.4 |  | IC50 [15]: > 10000 nM
17 | CS(=O)(=O)N(C[C@H](O)C(=O)NO)c1ccc(Oc2ccc(C(F)(F)F)cc2)cc1 | 9.9 | 14 | 139 | IC50 [15]: > 10000 nM
18 | Cc1ccc(Oc2ccc(N(C[C@H](Nc3ccc(F)cc3)C(=O)NO)S(C)(=O)=O)cc2)cc1 | 49.2 | 1.3 |  | 
19 | Cc1ccc(Oc2ccc(N(C[C@H](NC(C)C)C(=O)O)S(C)(=O)=O)cc2)cc1 |  | > 10000 | > 10000 | IC50 [15]: > 10000 nM
20 | CC(C)N(C)[C@@H](CN(c1ccc(Oc2ccc(C(F)(F)F)cc2)cc1)S(C)(=O)=O)C(=O)NO | 2.7 | 8.8 | 24 | 
21 | CS(=O)(=O)N(C[C@@H](C(=O)NO)N1CCN(c2ccc(Cl)cc2)CC1)c1ccc(Oc2ccc(C(F)(F)F)cc2)cc1 | 2.7 |  |  | 

Row | SMILES | Ratio IC50 [2] | IC50 [13] [nM] | IC50 [14] [nM] | other results
22 | CS(=O)(=O)N(C[C@@H](C(=O)NO)N1CCC(O)CC1)c1ccc(Oc2ccc(C(F)(F)F)cc2)cc1 | 3 | 1.9 | 5.7 | 
23 | Cc1ccc(Oc2ccc(N(C[C@H](NCc3ccccn3)C(=O)NO)S(C)(=O)=O)cc2)cc1 | 3.6 |  |  | 
24 | CS(=O)(=O)N(C[C@@H](C(=O)NO)N1CCCCC1)c1ccc(Oc2ccc(C(F)(F)F)cc2)cc1 | 3.3 | 2.3 |  | 
25 | Cc1ccc(Oc2ccc(N(C[C@H](Nc3cccc(F)c3)C(=O)NO)S(C)(=O)=O)cc2)cc1 | 59.6 | 0.89 |  | AUC [1]: 130 ng·h/mL; clearance [3]: 66.9 mL/min/kg; Cmax [4]: 620 nM; Vd [5]: 2.89 L/kg; half-life [7]: < 9 min; half-life [8]: < 9 min; half-life [10]: 36 min; fraction unbound [12]: 0.003
26 | Cc1ccc(Oc2ccc(N(C[C@H](NCc3ccccc3)C(=O)NO)S(C)(=O)=O)cc2)cc1 | 28.4 |  |  | 
27 | Cc1ccc(Oc2ccc(N(C[C@H](Nc3ccc4ccccc4c3)C(=O)NO)S(C)(=O)=O)cc2)cc1 | 16.6 |  | 1400 | 
28 | CC(C)N(Cc1ccccc1)[C@@H](CN(c1ccc(Oc2ccc(C(F)(F)F)cc2)cc1)S(C)(=O)=O)C(=O)NO | 4.1 |  |  | 
29 | C[C@@H]1CN([C@@H](CN(c2ccc(Oc3ccc(Cl)cc3)cc2)S(C)(=O)=O)C(=O)NO)C[C@H](C)O1 | 5.4 | 0.46 | 2.5 | 
30 | O=C1NC(=O)C2(CCC(=O)N2c2ccc(Oc3ccc(Cl)cc3)cc2)C(=O)N1 |  |  |  | Ki [13]: 0.7 nM; Ki [14]: 0.4 nM; Ki [16]: 1 nM
31 | CC(C)N(CCNC(=O)OCc1ccccc1)[C@@H](CN(c1ccc(Oc2ccc(C(F)(F)F)cc2)cc1)S(C)(=O)=O)C(=O)NO | 9 |  |  | 
32 | Cc1ccc(Oc2ccc(N(C[C@H](O)C(=O)NO)S(C)(=O)=O)cc2)cc1 |  | 7.8 | 61 | 
33 | CS(=O)(=O)N(C[C@@H](C(=O)NO)N1CCS(=O)(=O)CC1)c1ccc(Oc2ccc(C(F)(F)F)cc2)cc1 | 2.8 | 1.7 | 4.8 | 
34 | CS(=O)(=O)N1CCN([C@@H](CN(c2ccc(Oc3ccc(C(F)(F)F)cc3)cc2)S(C)(=O)=O)C(=O)NO)CC1 | 3.1 | 3.2 | 9.9 | 
35 | Cc1ccc(Oc2ccc(N(C[C@H](N[C@H](C)c3ccccc3)C(=O)NO)S(C)(=O)=O)cc2)cc1 | 16 | 1.5 |  | 
36 | Cc1ccc(Oc2ccc(N(C[C@H](NCc3ccncc3)C(=O)NO)S(C)(=O)=O)cc2)cc1 | 5.3 | 1.8 |  | 
37 | CC(=O)N1CCN([C@@H](CN(c2ccc(Oc3ccc(C(F)(F)F)cc3)cc2)S(C)(=O)=O)C(=O)NO)CC1 | 1.8 |  |  | 
38 | Cc1ccc(Oc2ccc(N(C[C@@H](C(=O)NO)N3CCOCC3)S(C)(=O)=O)cc2)cc1 | 2.7 | 1.9 | 5.2 | AUC [1]: 670 ng·h/mL; clearance [3]: 12.8 mL/min/kg; Cmax [4]: 3700 nM; Vd [5]: 0.66 L/kg; solubility [6]: > 70 µg/mL; half-life [7]: 10 min; half-life [8]: > 120 min; half-life [10]: 360 min; solubility [11]: > 70 µg/mL; fraction unbound [12]: 0.42
39 | COc1cccc(N[C@@H](CN(c2ccc(Oc3ccc(C)cc3)cc2)S(C)(=O)=O)C(=O)NO)c1 | 43.5 |  |  | IC50 [15]: > 10000 nM
40 | Cc1ccc(Oc2ccc(N(C[C@H](NC3CCCC3)C(=O)NO)S(C)(=O)=O)cc2)cc1 | 5.9 |  |  | 
41 | Cc1ccc(Oc2ccc(N(C[C@H](N[C@@H](C)c3ccccc3)C(=O)NO)S(C)(=O)=O)cc2)cc1 | 22.2 |  | 12 | IC50 [15]: > 10000 nM
42 | Cc1ccc(Oc2ccc(N(C[C@H](Nc3ccccc3)C(=O)NO)S(C)(=O)=O)cc2)cc1 | 25 | 0.52 | 13 | 
